According to US10626112B2, “Heterocyclic sulfonamide derivative and medicine comprising same” (EA PHARMA CO., LTD., priority 2014, dated 2020):

Molecular target: T1, human TRPA1 (Homo sapiens (Human), UniProt O75762)
Assay: Measurement of TRPA1 antagonist activity (1): intracellular calcium increase
Type: cell-based
Conditions: 293T cells transfected with human TRPA1 expression plasmid; allylisothiocyanate 20 μM stimulation; intracellular calcium fluorescence; read-out: hTRPA1 IC50
Outline: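 Calcium-flux readout of TRPA1 block: compound given 10 min before 20 μM (final) allylisothiocyanate, fluorescence tracked 5 min. Cells were 293T transiently expressing human TRPA1, dye-loaded 1 hr in HBSS, 20 mM HEPES, pH 7.2. Inhibition scaled between agonist-only and buffer-only responses; IC50 by sigmoid fitting.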

T1 sequence (O75762 whole entry): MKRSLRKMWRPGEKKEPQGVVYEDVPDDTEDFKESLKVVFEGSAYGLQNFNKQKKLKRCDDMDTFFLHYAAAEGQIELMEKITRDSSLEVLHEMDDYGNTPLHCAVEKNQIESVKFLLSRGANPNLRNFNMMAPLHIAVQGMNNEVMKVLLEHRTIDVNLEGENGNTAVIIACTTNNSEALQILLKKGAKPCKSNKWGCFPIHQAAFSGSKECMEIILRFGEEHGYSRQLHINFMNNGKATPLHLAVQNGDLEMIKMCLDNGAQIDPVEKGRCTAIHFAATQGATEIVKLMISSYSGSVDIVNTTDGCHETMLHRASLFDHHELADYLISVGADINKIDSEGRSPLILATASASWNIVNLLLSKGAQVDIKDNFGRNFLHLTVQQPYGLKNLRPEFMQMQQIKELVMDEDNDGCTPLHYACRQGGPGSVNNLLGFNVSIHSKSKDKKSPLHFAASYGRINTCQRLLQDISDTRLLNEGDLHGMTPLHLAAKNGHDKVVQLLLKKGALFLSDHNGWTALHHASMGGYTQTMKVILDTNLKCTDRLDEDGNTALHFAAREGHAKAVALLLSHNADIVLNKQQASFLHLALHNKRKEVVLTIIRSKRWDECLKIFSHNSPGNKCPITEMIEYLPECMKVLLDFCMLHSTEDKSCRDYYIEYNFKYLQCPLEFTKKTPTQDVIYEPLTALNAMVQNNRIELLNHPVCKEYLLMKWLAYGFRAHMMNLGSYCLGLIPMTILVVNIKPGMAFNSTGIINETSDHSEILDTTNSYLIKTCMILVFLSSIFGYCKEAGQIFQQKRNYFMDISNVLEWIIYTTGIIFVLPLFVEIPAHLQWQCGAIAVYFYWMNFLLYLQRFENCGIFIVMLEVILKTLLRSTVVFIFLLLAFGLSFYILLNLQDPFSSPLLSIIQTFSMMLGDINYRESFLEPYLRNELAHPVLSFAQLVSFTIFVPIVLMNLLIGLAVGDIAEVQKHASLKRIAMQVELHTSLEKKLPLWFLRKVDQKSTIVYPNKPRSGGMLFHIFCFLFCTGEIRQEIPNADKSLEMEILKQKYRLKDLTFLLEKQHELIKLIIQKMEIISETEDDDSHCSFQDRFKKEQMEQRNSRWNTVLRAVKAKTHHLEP

Compound | IC50
O=C(NCc1cccc(S(=O)(=O)Cc2ccc(C(F)(F)F)cc2)c1)[C@@H]1CCCN1S(=O)(=O)c1cc2ccccc2o1 [Example 324, (2S)-1-(benzofuran-2-ylsulfonyl)-N-[[3-[[4-(trifluoromethyl)phenyl]methylsulfonyl]phenyl]methyl]pyrrolidine-2-carboxamide] | 490 nM
O=C(NCc1cccc(C[S+]([O-])c2ccc(C(F)(F)F)cc2)c1)[C@@H]1CCCN1S(=O)(=O)c1cc2ccccc2o1 (stereo partly drawn) [Example 325, (2S)-1-(benzofuran-2-ylsulfonyl)-N-[[3-[[4-(trifluoromethyl)phenyl]sulfinylmethyl]phenyl]methyl]pyrrolidine-2-carboxamide] | 560 nM
CNc1nc(CNC(=O)[C@@H]2CCCN2S(=O)(=O)c2cc3ccccc3o2)cc(-c2ccc(C(F)(F)F)cc2)n1 [Example 326, (2S)-1-(benzofuran-2-ylsulfonyl)-N-[[2-(methylamino)-6-[4-(trifluoromethyl)phenyl]pyrimidin-4-yl]methyl]pyrrolidine-2-carboxamide] | 29 nM
O=C(NCc1cc(-c2ccc(C(F)(F)F)cc2)nc(OCc2ccccc2)n1)[C@@H]1CCCN1S(=O)(=O)c1cc2ccccc2o1 [Example 327, (2S)-1-(benzofuran-2-ylsulfonyl)-N-[[2-benzyloxy-6-[4-(trifluoromethyl)phenyl]pyrimidin-4-yl]methyl]pyrrolidine-2-carboxamide] | 4.3 nM
CN(C)[C@@H]1C[C@@H](C(=O)NCc2ccnc(-c3ccc(C(F)(F)F)cc3O)c2)N(S(=O)(=O)c2cc3ccccc3o2)C1 [Example 334, (2S,4R)-1-(benzofuran-2-ylsulfonyl)-4-(dimethylamino)-N-[[2-[2-hydroxy-4-(trifluoromethyl)phenyl]-4-pyridyl]methyl]pyrrolidine-2-carboxamide] | 630 nM
CC[C@H](NS(=O)(=O)c1cc2cc(F)ccc2o1)C(=O)NCc1cc(-c2ccc(C(F)(F)F)cn2)ccn1 [Example 335, (2S)-2-[(5-fluorobenzofuran-2-yl)sulfonylamino]-N-[[4-[5-(trifluoromethyl)-2-pyridyl]-2-pyridyl]methyl]butaneamide] | 54 nM
CC(C)(C)OC(=O)c1ccc(CNC(=O)[C@@H]2CCCN2S(=O)(=O)c2cc3ccccc3o2)cc1-c1ccc(C(F)(F)F)cc1 [Example 336, tert-butyl 4-[[[(2S)-1-(benzofuran-2-ylsulfonyl)pyrrolidine-2-carbonyl]amino]methyl]-2-[4-(trifluoromethyl)phenyl]-benzoate] | 5.8 nM

Results, then the compound that gave them:

IC50 | Compound
22 nM | CN(C)C(=O)c1ccc(CNC(=O)[C@@H]2CCCN2S(=O)(=O)c2cc3ccccc3o2)cc1-c1ccc(C(F)(F)F)cc1 [Example 337, (2S)-1-(benzofuran-2-ylsulfonyl)-N-[[4-(dimethylcarbamoyl)-3-[4-(trifluoromethyl)phenyl]-phenyl]methyl]pyrrolidine-2-carboxamide]
7.1 nM | (2S)-1-(5-fluorobenzofuran-2-yl)sulfonyl-N-[[3-[2-methyl-5-(trifluoromethyl)pyrazol-3-yl]phenyl]methyl]pyrrolidine-2-carboxamide [Example 164]
12 nM | (2S)-1-(5-fluorobenzofuran-2-yl)sulfonyl-N-[[3-[[2-morpholino-4-pyridyl)-methoxy]phenyl]-methyl]pyrrolidine-2-carboxamide [Example 18]
1.3 nM | (2S)-1-(5-fluorobenzofuran-2-yl)sulfonyl-N-[[3-[[4-(trifluoromethyl)phenyl]methoxy]-phenyl]methyl]pyrrolidine-2-carboxamide [Example 41]
1.6 nM | (2S)-1-(benzofuran-2-ylsulfonyl)-N-[[3-[6-(trifluoromethyl)-3-pyridyl]phenyl]methyl]pyrrolidine-2-carboxamide [Example 79]

Molecular target: T1, human TRPA1
Assay: Measurement of TRPA1 antagonist activity (2): as (1), different lot of human TRPA1 expression plasmid
Type: cell-based
Conditions: 293T cells transfected with human TRPA1, allylisothiocyanate 20 μM stimulation, calcium fluorescence, read-out: hTRPA1 IC50
Procedure: Human embryonic kidney-derived 293T cells were cultured in Dulbecco's Modified Eagle Medium containing 10% fetal bovine serum, 10 unit penicillin, and 10 μg streptomycin, plated on a petri dish having a diameter of 10 cm at 3×10^6 cells, and cultured for 24 hr in a CO2 incubator. A reduced serum medium (manufactured by Invitrogen, trade name: OPTI-MEM, 600 μL), a gene transfer reagent (manufactured by Mirus Bio, trade name: Mirus TransIT-293, 18 μL), and human TRPA1 expression plasmid (6 μg) were mixed, the total amount of the mixture was added to the cells on the petri dish to allow for gene transfer. The cells were recovered about for 8 hr later, plated on a poly-D-lysine coated 384 well black/clear bottom plate at 12,000 cells/well, and cultured overnight.
Measurement of Intracellular Calcium Increase
The 384 well plate was recovered, and the medium was removed. A calcium-bonded fluorescent indicator (manufactured by Molecular Device, trade name: Calcium4 Assay Kit, 38 μL) dissolved in assay buffer (1×HBSS, 20 mM HEPES, pH 7.2) was added, and the cells were stained in a CO2 incubator for 1 hr. The cells were taken out at room temperature, stood for not less than 15 min, a test substance (10 μL) was added by a platereader FDSS7000 (Hamamatsu Photonics K.K.) equipped with a 384ch dispenser. After 10 min, allylisothiocyanate (12 μL) was further added at a final concentration of 20 μM, and changes in the relative fluorescence intensity after addition of allylisothiocyanate were measured for 5 min.
Test Substance Preparation
The test substance was dissolved in dimethyl sulfoxide and serially diluted with an assay buffer containing 0.1% bovine serum albumin (1×HBSS, 20 mM HEPES, pH 7.2) to a 4.8-fold concentration of the evaluation concentration. Allylisothiocyanate, which is a known TRPA1 activator, was dissolved in dimethyl sulfoxide to 100 mM, and further diluted 5-fold (100 μM) of the final concentration, like the test substance.
Calculation of Antagonist Activity
Under the test substance-free conditions, the maximum variation range of the fluorescence intensity before and after allylisothiocyanate stimulation was defined to be 100% activity rate, and the variation range before and after buffer stimulation was defined as 0% activity rate. The activity rate on addition of the test substance was determined, and the numerical value obtained by subtracting the activity rate from 100 was defined to be an inhibitory rate. IC50, which is the concentration of the test substance necessary for reaching the 50% inhibitory rate, was calculated from the sigmoid approximate curve by a spreadsheet software Excel-Fit.
Measurement of TRPA1 Antagonist Activity (2)
By a method similar to that in Experimental Example 1-1 except that the lot of human […] expression plasmid is different, the TRPA1 antagonist activity of the test substance was measured.

Compound | IC50
O=C(NCc1cc(-c2ccc(C(F)(F)F)cc2)nc(N2CCC2)n1)[C@@H]1CCCN1S(=O)(=O)c1cc2ccccc2o1 [Example 328, (2S)-N-[[2-(azetidin-1-yl)-6-[4-(trifluoromethyl)phenyl]pyrimidin-4-yl]methyl]-1-(benzofuran-2-ylsulfonyl)pyrrolidine-2-carboxamide] | 16 nM
O=C(NCc1cc(-c2ccc(C(F)(F)F)cc2)nc(N2CCCC2)n1)[C@@H]1CCCN1S(=O)(=O)c1cc2ccccc2o1 [Example 329, (2S)-1-(benzofuran-2-ylsulfonyl)-N-[[2-pyrrolidin-1-yl-6-[4-(trifluoromethyl)phenyl]pyrimidin-4-yl]methyl]pyrrolidine-2-carboxamide] | 14 nM
O=C(NCc1cc(-c2ccc(C(F)(F)F)cc2)nc(N2CCOCC2)n1)[C@@H]1CCCN1S(=O)(=O)c1cc2ccccc2o1 [Example 330, (2S)-1-(benzofuran-2-ylsulfonyl)-N-[[2-morpholino-6-[4-(trifluoromethyl)phenyl]pyrimidin-4-yl]methyl]pyrrolidine-2-carboxamide] | 15 nM
O=C(NCc1ccnc(-c2ccc(C(F)F)cc2)c1)[C@@H]1CCCN1S(=O)(=O)c1cc2ccccc2o1 [Example 332, (2S)-1-(benzofuran-2-ylsulfonyl)-N-[[2-[4-(difluoromethyl)phenyl]-4-pyridyl]methyl]pyrrolidine-2-carboxamide] | 16 nM
O=C(NCc1cc(-c2ccc(C(F)F)cc2)ccn1)[C@@H]1CCCN1S(=O)(=O)c1cc2ccccc2o1 [Example 333, (2S)-1-(benzofuran-2-ylsulfonyl)-N-[[4-[4-(difluoromethyl)phenyl]-2-pyridyl]methyl]pyrrolidine-2-carboxamide] | 21 nM

Continued, values first:

IC50 | Compound
12 nM | CC(C)(C)OC(=O)c1cc(CNC(=O)[C@@H]2CCCN2S(=O)(=O)c2cc3ccccc3o2)cc(-c2ccc(C(F)(F)F)cc2)c1 [Example 338, tert-butyl 3-[[[(2S)-1-(benzofuran-2-ylsulfonyl)pyrrolidine-2-carbonyl]amino]methyl]-5-[4-(trifluoromethyl)phenyl]-benzoate]
11 nM | CN(CC(=O)NCc1cc(-c2ccc(C(F)(F)F)cn2)ccn1)S(=O)(=O)c1cc2cc(F)ccc2o1 [Example 339, 2-[(5-fluorobenzofuran-2-yl)sulfonyl-methyl-amino]-N-[[4-[5-(trifluoromethyl)-2-pyridyl]-2-pyridyl]methyl]acetamide]
380 nM | CN(C(C)(C)C(=O)NCc1cc(-c2ccc(C(F)(F)F)cn2)ccn1)S(=O)(=O)c1cc2cc(F)ccc2o1 [Example 340, 2-[(5-fluorobenzofuran-2-yl)sulfonyl-methyl-amino]-2-methyl-N-[[4-[5-(trifluoromethyl)-2-pyridyl]-2-pyridyl]methyl]propanamide]
14 nM | C[C@@]1(C(=O)NCc2cc(-c3ccc(C(F)(F)F)cn3)ccn2)CCCN1S(=O)(=O)c1cc2cc(F)ccc2o1 [Example 341, (2S)-1-(5-fluorobenzofuran-2-yl)sulfonyl-2-methyl-N-[[4-[5-(trifluoromethyl)-2-pyridyl]-2-pyridyl]methyl]pyrrolidine-2-carboxamide]
180 nM | C[C@H](C(=O)NCc1cc(-c2ccc(C(F)(F)F)cn2)ccn1)N(C)S(=O)(=O)c1cc2cc(F)ccc2o1 [Example 342, (2R)-2-[(5-fluorobenzofuran-2-yl)sulfonyl-methyl-amino]-N-[[4-[5-(trifluoromethyl)-2-pyridyl]-2-pyridyl]methyl]propanamide]
280 nM | O=C(CNS(=O)(=O)c1cc2cc(F)ccc2o1)NCc1cc(-c2ccc(C(F)(F)F)cn2)ccn1 [Example 343, 2-[(5-fluorobenzofuran-2-yl)sulfonylamino]-N-[[4-[5-(trifluoromethyl)-2-pyridyl]-2-pyridyl]methyl]acetamide]
3.3 nM | CN(CC(=O)NCc1cc(-c2ccc(C(F)(F)F)cc2)ncn1)S(=O)(=O)c1cc2cc(F)ccc2o1 [Example 344, 2-[(5-fluorobenzofuran-2-yl)sulfonyl-methyl-amino]-N-[[6-[4-(trifluoromethyl)-phenyl]pyrimidin-4-yl]methyl]acetamide]
